From ChEMBL document CHEMBL1156402, “Two new furanoditerpenes from Saururus chinenesis and their effects on the activation of peroxisome proliferator-activated receptor gamma” (J Nat Prod, 2002)

Legend:
[1] = molecular target: T1, Peroxisome proliferator-activated receptor gamma (Homo sapiens) (UniProt P37231); experiment: Agonist activity at human PPARgamma expressed in mouse NIH/3T3 cells assessed as receptor activation at 100 uM after 16 hrs by luciferase based reporter gene assay relative to control; type: functional, cell-based; conditions: NIH3T3
T1 sequence (whole entry): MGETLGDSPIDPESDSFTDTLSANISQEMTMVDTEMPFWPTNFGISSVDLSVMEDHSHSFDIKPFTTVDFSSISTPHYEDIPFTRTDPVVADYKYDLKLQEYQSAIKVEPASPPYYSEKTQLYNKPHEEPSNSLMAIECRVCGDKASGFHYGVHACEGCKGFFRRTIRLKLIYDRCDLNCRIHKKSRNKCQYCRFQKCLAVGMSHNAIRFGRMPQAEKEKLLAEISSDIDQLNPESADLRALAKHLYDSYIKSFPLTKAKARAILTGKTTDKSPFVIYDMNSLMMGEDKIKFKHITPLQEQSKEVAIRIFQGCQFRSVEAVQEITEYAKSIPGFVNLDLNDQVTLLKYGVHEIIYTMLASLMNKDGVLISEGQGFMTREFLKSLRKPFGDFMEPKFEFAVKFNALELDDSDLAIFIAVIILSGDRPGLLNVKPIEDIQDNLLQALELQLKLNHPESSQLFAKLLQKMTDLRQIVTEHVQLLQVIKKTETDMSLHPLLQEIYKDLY

[2] = molecular target: T2, Peroxisome proliferator-activated receptor gamma (Homo sapiens, UniProt P37231); experiment: Agonist activity at human PPARgamma expressed in mouse NIH/3T3 cells assessed as receptor activation after 16 hrs by luciferase based reporter gene assay; type: functional, cell-based, NIH3T3
T2 sequence (P37231 whole entry): T1 sequence (whole entry)

Compound	fold change (FC) [1]	EC50 [2] [µM]
CC1(COc2ccc(CC3SC(=O)NC3=O)cc2)CCCCC1 (centres undefined)	15	–
C/C(=C/CC/C(C)=C/CC/C(C)=C/Cc1occc1C)C(=O)O [SAURUFURAN A]	13.5	16.7
C/C(=C\CC/C(C)=C/Cc1occc1C)CC/C=C(\C)C(=O)O [SAURUFURAN B]	–	> 100
